The results in this text go back to PMC8436246 (ACS Medicinal Chemistry Letters, 2021).

Series [1] is described as follows: in vitro stability in mouse hepatocytes. It counts as in vitro ADME.
Series [2] has as its system EMT6 tumor-implanted BALB/c mice. The series is described as follows: pharmacokinetic-pharmacodynamic experiments in EMT6 tumor-bearing BALB/c mice. It counts as in vivo.
Series [3] in a line: mouse pharmacokinetic study, oral bioavailability. It counts as in vivo, C57BL/6 mice.

As to `CC(C)[C@H](N)C(=O)N[C@H]1CN[C@H](C(=O)O)[C@@H]1CCCB(O)O` [Compound 24a], in series [1], the metabolic stability entry is “good metabolic stability was not achieved”.
For `O=C(O)[C@H]1NCC[C@H]1CCCB(O)O` [Compound 4a], the “serum and tumor arginine levels” value in series [2] (30, 100, 300 mpk BID p.o., 1 h after fourth dose, vs saline control) was “substantially elevated”. In series [2] (p.o. 250 mpk BID, 14 day, ± mDX400 i.p. 5 mpk Q5D), the “pharmacodynamic effects on serum and tumor arginine levels with or without codosing of mDX400” value is reported as “comparable pharmacodynamic effects”. Further, the “tolerability / body weight” value in series [2] (p.o. 250 mpk BID, alone and with mDX400 (i.p. 5 mpk Q5D), 14 day repeated dosing) was “well tolerated”.
Consider `C[C@H](N)C(=O)N[C@H]1CN[C@H](C(=O)O)[C@@H]1CCCB(O)O` [Compound 23], for which the “combined exposures of 18 and 23 (% F)” value in series [3] (23 dosed orally, 10 mpk, mouse) is 27 % F. The clearance entry in series [3] (mouse pharmacokinetic experiments) is recorded as “rapid clearance”.
